In ChEMBL document CHEMBL1139835, “Novel quinolizidinyl derivatives as antiarrhythmic agents” (J Med Chem, 2007) one finds EC50, Activity and inhibition data, which are given here for seven compounds.

Assay [1] is described as follows: Negative inotropic activity assessed as decrease in developed tension in isolated guinea pig left atrium. It is filed as functional, tissue-based. To be noted: Cavia porcellus, Cardiac atrium.
Assay [2] in a line: Activity against alternating current-induced arrhythmia in guinea pig left atrium at 1 uM. The format is functional, Cavia porcellus, Cardiac atrium.
The subject of assay [3] is Aorta. Kind of assay: Inhibition of calcium-induced contraction of potassium ion depolarized guinea pig aortic strips at 50 uM. To be noted: Cavia porcellus. It is filed as functional.
The nature of assay [4]: Negative inotropic activity assessed as decrease in developed tension in isolated guinea pig left atrium at 10 uM relative to control. It is filed as functional, Cavia porcellus, Cardiac atrium. Set-up: scale not given: the % may be the effect or the level left.
Assay [5] in a line: Negative chronotropic activity assessed as decrease in atrial rate in isolated guinea pig right atrium at 5 uM relative to control. It is filed as functional, Cavia porcellus, Cardiac atrium. Set-up: scale not given: the % may be the effect or the level left.
Assay [6] concerns Aorta. As to the kind of experiment: Inhibition of calcium-induced contraction of potassium ion depolarized guinea pig aortic strips at 100 uM. The format is functional. To be noted: Cavia porcellus.
A short description of assay [7]: Positive chronotropic activity in isolated guinea pig right atrium at 5 uM relative to control. The format is functional, Cavia porcellus, Cardiac atrium.
Assay [8] can be described thus: Negative inotropic activity assessed as decrease in developed tension in isolated guinea pig left atrium at 1 uM relative to control. Set-up: scale not given: the % may be the effect or the level left. It is filed as functional, Cavia porcellus, Cardiac atrium.
A short description of assay [9]: Activity against alternating current-induced arrhythmia in guinea pig left atrium at 50 uM. It is filed as functional, Cavia porcellus, Cardiac atrium.
The nature of assay [10]: Negative inotropic activity assessed as decrease in developed tension in isolated guinea pig left atrium at 50 uM relative to control. It is filed as functional, Cavia porcellus, Cardiac atrium. Set-up: scale not given: the % may be the effect or the level left.
Assay [11] is described as follows: Activity against alternating current-induced arrhythmia in guinea pig left atrium. The format is functional, tissue-based. To be noted: Cavia porcellus, Cardiac atrium.
Assay [12] is described as follows: Positive chronotropic activity in isolated guinea pig right atrium at 1 uM relative to control. The format is functional, Cavia porcellus, Cardiac atrium.
The nature of assay [13]: Negative chronotropic activity assessed as decrease in atrial rate in isolated guinea pig right atrium at 100 uM relative to control. It is filed as functional, Cavia porcellus, Cardiac atrium. More on the design: scale not given: the % may be the effect or the level left.
A short description of assay [14]: Activity against alternating current-induced arrhythmia in guinea pig left atrium at 5 uM. It is filed as functional, Cavia porcellus, Cardiac atrium.
Assay [15] relates to Heart. Kind of assay: Heart rate in spontaneously beating Langendorff-perfused guinea pig heart at 10 uM. It is filed as functional, Cavia porcellus. Set-up: unit not given here.
The subject of assay [16] is Heart. As to the kind of experiment: Atrioventricular conduction time in spontaneously beating Langendorff-perfused guinea pig heart at 10 nM. The format is functional, Cavia porcellus.
Assay [17] relates to Heart. Kind of assay: Heart rate in spontaneously beating Langendorff-perfused guinea pig heart at 0.1uM. The format is functional, Cavia porcellus. Set-up: unit: beats/min.
Assay [18] concerns Heart. As to the kind of experiment: Ventricular action potential duration in spontaneously beating Langendorff-perfused guinea pig heart at 10 uM. The format is functional, Cavia porcellus.
The test system of assay [19] is Heart. As to the kind of experiment: Intraventricular conduction time in spontaneously beating Langendorff-perfused guinea pig heart at 10 uM. It is filed as functional, Cavia porcellus.
Assay [20] concerns Heart. As to the kind of experiment: Intraventricular conduction time in spontaneously beating Langendorff-perfused guinea pig heart at 10 nM. The format is functional, Cavia porcellus.
For assay [21], the system named is Heart. Kind of assay: Heart rate in spontaneously beating Langendorff-perfused guinea pig heart at 10 nM. Set-up: unit not given here. It is filed as functional, Cavia porcellus.
Assay [22] has as its system Heart. As to the kind of experiment: Heart rate in spontaneously beating Langendorff-perfused guinea pig heart at 1 nM. It is filed as functional, Cavia porcellus. More on the design: unit not given here.
Assay [23] relates to Heart. As to the kind of experiment: Intraventricular conduction time in spontaneously beating Langendorff-perfused guinea pig heart at 1 uM. It is filed as functional, Cavia porcellus.
Assay [24] relates to Heart. As to the kind of experiment: Atrioventricular conduction time in spontaneously beating Langendorff-perfused guinea pig heart at 1 uM. It is filed as functional, Cavia porcellus.
For assay [25], the system named is Heart. As to the kind of experiment: Ventricular action potential duration in spontaneously beating Langendorff-perfused guinea pig heart at 10 nM. It is filed as functional, Cavia porcellus.
A short description of assay [26]: Negative inotropic activity assessed as decrease in developed tension in isolated guinea pig left atrium at 50 nM relative to control. The format is functional, Cavia porcellus, Cardiac atrium. Set-up: scale not given: the % may be the effect or the level left.
The nature of assay [27]: Negative chronotropic activity assessed as decrease in atrial rate in isolated guinea pig right atrium at 10 uM relative to control. It is filed as functional, Cavia porcellus, Cardiac atrium. More on the design: scale not given: the % may be the effect or the level left.
Assay [28] relates to Heart. Kind of assay: Heart rate in spontaneously beating Langendorff-perfused guinea pig heart at 1 uM. The format is functional, Cavia porcellus. More on the design: unit not given here.
Assay [29] relates to Heart. As to the kind of experiment: Ventricular action potential duration in spontaneously beating Langendorff-perfused guinea pig heart at 0.1 uM. The format is functional, Cavia porcellus.
The subject of assay [30] is Heart. Kind of assay: Atrioventricular conduction time in spontaneously beating Langendorff-perfused guinea pig heart at 10 uM. It is filed as functional, Cavia porcellus.
The test system of assay [31] is Heart. Kind of assay: Ventricular action potential duration in spontaneously beating Langendorff-perfused guinea pig heart at 1 uM. The format is functional, Cavia porcellus.
For assay [32], the system named is Heart. As to the kind of experiment: Intraventricular conduction time in spontaneously beating Langendorff-perfused guinea pig heart at 1 nM. The format is functional, Cavia porcellus.
Assay [33] has as its system Heart. As to the kind of experiment: Ventricular action potential duration in spontaneously beating Langendorff-perfused guinea pig heart at 1 nM. It is filed as functional, Cavia porcellus.
Assay [34] is described as follows: Activity against alternating current-induced arrhythmia in guinea pig left atrium at 10 uM. The format is functional, Cavia porcellus, Cardiac atrium.
The subject of assay [35] is Heart. Kind of assay: Intraventricular conduction time in spontaneously beating Langendorff-perfused guinea pig heart at 0.1 uM. It is filed as functional, Cavia porcellus.
The test system of assay [36] is Heart. As to the kind of experiment: Atrioventricular conduction time in spontaneously beating Langendorff-perfused guinea pig heart at 0.1 uM. The format is functional, Cavia porcellus.
Assay [37] relates to Heart. Kind of assay: Atrioventricular conduction time in spontaneously beating Langendorff-perfused guinea pig heart at 1 nM. The format is functional, Cavia porcellus.
Assay [38] is described as follows: Positive chronotropic activity in isolated guinea pig right atrium relative to control. It is filed as functional, Cavia porcellus, Cardiac atrium.
Assay [39] can be described thus: Negative inotropic activity assessed as decrease in developed tension in isolated guinea pig left atrium at 0.5 uM relative to control. It is filed as functional, Cavia porcellus, Cardiac atrium. More on the design: scale not given: the % may be the effect or the level left.
The nature of assay [40]: Negative inotropic activity assessed as decrease in developed tension in isolated guinea pig left atrium at 0.1 uM relative to control. It is filed as functional, Cavia porcellus, Cardiac atrium. Set-up: scale not given: the % may be the effect or the level left.

The structures appear in SMILES notation.

As to `Cc1cc([N+](=O)[O-])cc(C)c1OC[C@H]1CCCN2CCCC[C@H]12`, the EC50 (commonly the concentration giving half of the maximal effect) in [1] came out at 600 nM. Besides, the values for the Activity in [2], in assay [4] and in assay [5] were 23%, 83% and 25%, respectively. Also, the inhibition (commonly the percentage by which the read-out fell short of the control) at 50 µM in the assay on Aorta [3] is 19%.

Turning to `CCN(CC)CC(=O)Nc1c(C)cccc1C` [LIDOCAINE], the inhibition at 100 µM in the assay with Aorta [6] amounted to 14%. The figures for the Activity in assay [7], in assay [8] and in assay [9] were 29%, 88% and 34%, respectively. In assay [1], the EC50 was determined as 17 nM.

Take `Cc1cccc(C)c1NC(=O)C[C@@H]1CCCN2CCCC[C@H]12`: the inhibition at 100 µM with Aorta [6] is 5%. The values for the Activity in assay [10], in [12] and in assay [9] were 95%, 8% and 78%, respectively. Further, the EC50 was 5710 nM in assay [11] and 620 nM in [1].

For the compound `Cc1cc(NS(C)(=O)=O)cc(C)c1OC[C@@H]1CCCN2CCCC[C@H]12`, the inhibition at 100 µM in the assay with Aorta [6] is 30%. Also, the results for the EC50 in [11] and in [1] were 1250 nM and 31 nM, respectively. Further, the Activity in [8] stood at 83%; in [13] it was 12%; in [14] it was 60%.

With `Cc1cccc(C)c1OC[C@@H]1CCCN2CCCC[C@H]12`, the Activity with Heart [15] was found to be 203; in the assay with Heart [16], 64 ms; with Heart [17], 210; with Heart [18], 210 ms; in the assay with Heart [19], 31 ms; in the assay on Heart [20], 30 ms. For the same compound, the Activity in the assay with Heart [21] worked out at 215; in the assay on Heart [22], 218; in the assay with Heart [23] it was 30 ms; with Heart [24], 68 ms; with Heart [25], 160 ms; in assay [26], 25%. For the same compound, the Activity in [27] was 19%; with Heart [28] it was 206; with Heart [29], 170 ms; in the assay on Heart [30], 70 ms; in the assay on Heart [31], 200 ms; in the assay with Heart [32], 30 ms. The Activity in the assay on Heart [33] was determined as 155 ms; in [34], 176%; in the assay with Heart [35] it was 28 ms; with Heart [36], 66 ms; in the assay with Heart [37], 60 ms. For the same compound, the EC50 in assay [11] was found to be 460 nM. Also, the inhibition at 50 µM in the assay with Aorta [3] is 26%.

In the case of `CCN(CC)CCNC(=O)c1ccc(N)cc1` [PROCAINAMIDE], the inhibition at 100 µM in the assay on Aorta [6] was 3%. Moreover, the Activity worked out at 9% in [38], 92% in [39] and 11% in assay [9]. Also, the EC50 in [1] is 14 nM.

As to `Cc1cccc(C)c1OC[C@H]1CCCN2CCCC[C@H]12`, the inhibition at 100 µM in the assay with Aorta [6] was 21%. Also, the results for the Activity in assay [40], in assay [27] and in assay [34] were 68%, 13% and 35%, respectively. Also, the EC50 in [1] was 14 nM.
